Bridge positions count the residues as written; N and C are the ends. Square brackets hold non-standard residues; d marks the D form. Peptide text beside a SMILES is read from it. * marks the point of attachment. Heptanoyl(6-Me) = CC(C)CCCCC(=O)*; Dab = NCC[C@H](N)C(=O)O
Key:
Test in all cases: microdilution in broth (reference method)
Assay type in all cases: cell-based
Acinetobacter baumannii = settings: by microdilution in broth
Description: (§1) So as to be able to evaluate the efficacy of the method according to the invention, the different strains were analyzed beforehand by microdilution in broth in order to determine their status (sensitive or resistant). This method is regarded as the reference method by the CLSI and EUCAST.
(§2) As before, the different strains were analyzed beforehand by microdilution in broth in order to determine their status (sensitive or resistant).

Pseudomonas aeruginosa = settings: by microdilution in broth
Description: as §1, §2

Klebsiella pneumoniae = tested on: Klebsiella pneumoniae
Description: as §1

Escherichia coli = tested on: Escherichia coli
Description: as §1

For `CC(C)CCCCC(=O)N[C@@H](CCN)C(=O)N[C@H](C(=O)N[C@@H](CCN)C(=O)N[C@H]1CCNC(=O)[C@H]([C@@H](C)O)NC(=O)[C@H](CCN)NC(=O)[C@H](CCN)NC(=O)[C@H](CC(C)C)NC(=O)[C@@H](CC(C)C)NC(=O)[C@H](CCN)NC1=O)[C@@H](C)O` [colistin] ({Heptanoyl(6-Me)}-[Dab]T[Dab][Dab][Dab][dL]L[Dab][Dab]T; lactam 4-C), the “Sensible ou Résistante” value (Acinetobacter baumannii; strain AB_R-E105) was “Résistante”, the “Sensible ou Résistante” value (Acinetobacter baumannii; strain AB_S044) was “Sensible” and the “Sensible ou Résistante” value (Acinetobacter baumannii; strain AB_S045) was “Sensible”. For the same compound, the “Sensible ou Résistante” value (Acinetobacter baumannii; strain AB_S046) was “Sensible”, the “Sensible ou Résistante” value (Pseudomonas aeruginosa; strain PA_RE66) was “Résistante” and the “Sensible ou Résistante” value (Pseudomonas aeruginosa; strain PA_RE68) was “Résistante”. The “Sensible ou Résistante” value (Pseudomonas aeruginosa; strain PA_S062) was “Sensible”, the “Sensible ou Résistante” value (Pseudomonas aeruginosa; strain PA_SE64) was “Sensible” and the Statuts par microdilution (Klebsiella pneumoniae; strain KP_R9 (chromosomal)) was “Résistante”. For the same compound, the Statuts par microdilution (Klebsiella pneumoniae; strain KP_S10) was “Sensible”, the Statuts par microdilution (Klebsiella pneumoniae; strain KP_S15) was “Sensible” and the Statuts par microdilution (Klebsiella pneumoniae; strain KR_R16 (chromosomal)) was “Résistante”. For the same compound, the Statuts par microdilution (Escherichia coli; strain EC_R16 (mcr-1 plasmid)) was “Résistante”, the Statuts par microdilution (Escherichia coli; strain EC_R17 (mcr-1 plasmid)) was “Résistante” and the Statuts par microdilution (Escherichia coli; strain EC_S10) was “Sensible”. The Statuts par microdilution (Escherichia coli; strain EC_S15) was “Sensible”.

Source: patent US12460243B2, “Mass spectrometry determination of the sensitivity or resistance of bacteria to an antibiotic” (priority 2019, dated 2025)
